From the supplement of paper PMC10702517 come the findings set out here.

± gives the standard deviation.

Data set [1] is described as follows: chemical recovery from spiked human plasma; higher = better extraction. The note with it: pooled human plasma.
Data set [2] is described as follows: chemical recovery into PDMS from spiked human plasma; higher = better extraction. The following applies: pooled human plasma, extraction method: PES with PDMS.
The nature of data set [3]: chemical recovery by SPE of plasma after PDMS sampling; higher = better extraction. The note with it: pooled human plasma, extraction method: HLB SPE of plasma after PES.
Where [4] appears, read: extraction method: SPE only (HLB 96-well).
[5] abbreviates: extraction method: SPE only (HLB 96-well), PES comparison experiment.
Where [6] appears, read: extraction method: solvent precipitation (ACN + hexane).
The mark [7] stands for this setting: extraction method: PES+SPE (3 d PDMS equilibration then HLB SPE).
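Throughout, for chemical recovery by SPE of plasma after PDMS sampling: over 400 spiked chemicals quantified by LC-HRMS or GC-HRMS via internal standard calibration, recovery relative to spike mix added to unspiked plasma extract to correct matrix effects.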

`OC(c1ccc(Cl)cc1)(c1ccc(Cl)cc1)C(Cl)(Cl)Cl` [Dicofol]: the chemical recovery in data set [1] (setting [4]) was 0.108 ± 0.017%; in data set [1] (setting [5]) it was 14.4 ± 2.8%; in data set [1] (setting [6]), 23.1 ± 0.7%. Further, the “chemical recovery into PDMS” value in data set [2] (equilibration time (d): 3) turned out to be 56.9 ± 18%. Also, the “chemical recovery by SPE of plasma” value was determined as 11.5 ± 8.1% in data set [3] (equilibration time (d): 1), 15 ± 1.5% in data set [3] (equilibration time (d): 3) and 15.2 ± 3.4% in data set [3] (equilibration time (d): 6).
Turning to `ClC1=C(Cl)[C@]2(Cl)[C@@H]3[C@@H]4C[C@@H]([C@H]5O[C@@H]45)[C@@H]3[C@@]1(Cl)C2(Cl)Cl` [Dieldrin], the chemical recovery in data set [1] (setting [4]) is 0.809 ± 0.21%; in data set [1] (setting [5]), 8.32 ± 1.5%; in data set [1] (setting [6]) it was 22.5 ± 1.4%. The “chemical recovery into PDMS” value in data set [2] (equilibration time (d): 6) turned out to be 97 ± 29%. Further, the “chemical recovery by SPE of plasma” value in data set [3] (equilibration time (d): 1) was found to be 0.594 ± 1%.
Turning to `O=C(NC(=O)c1c(F)cccc1F)Nc1ccc(Cl)cc1` [Diflubenzuron], the chemical recovery was determined as 29.8 ± 6.3% in data set [1] (setting [4]) and 48.6 ± 2.1% in data set [1] (setting [6]). For the same molecule, the “chemical recovery into PDMS” value amounted to 36.3 ± 2.5% in data set [2] (equilibration time (d): 1), 38.3 ± 2.3% in data set [2] (equilibration time (d): 3) and 40.4 ± 5% in data set [2] (equilibration time (d): 6). Further, the “chemical recovery by SPE of plasma” value is 8.71 ± 3.2% in data set [3] (equilibration time (d): 1), 8.73 ± 0.29% in data set [3] (equilibration time (d): 3) and 4.73 ± 0.29% in data set [3] (equilibration time (d): 6).
As to `COCCN(C(=O)CS(=O)(=O)O)c1c(C)cccc1C` [Dimethachlor ESA], the chemical recovery in data set [1] (setting [5]) came to 50.3 ± 3.3%. Also, the “chemical recovery into PDMS” value in data set [2] (equilibration time (d): 1) was 0.000876 ± 0.0015%; in data set [2] (equilibration time (d): 3) it was 0.000445 ± 0.00077%. The entries for the “chemical recovery by SPE of plasma” value in data set [3] (equilibration time (d): 1), in data set [3] (equilibration time (d): 3) and in data set [3] (equilibration time (d): 6) were 46.9 ± 7.3%, 53.3 ± 3.2% and 48 ± 4.5%, respectively.
For the molecule `COCCN(C(=O)C(=O)O)c1c(C)cccc1C` [Dimethachlor OA], the figures for the chemical recovery in data set [1] (setting [4]), in data set [1] (setting [5]) and in data set [1] (setting [6]) were 28.1 ± 6.4%, 51.3 ± 3.7% and 56.8 ± 7.6%, respectively. Besides, the “chemical recovery into PDMS” value in data set [2] (equilibration time (d): 6) was 0.00348 ± 0.006%. Besides, the figures for the “chemical recovery by SPE of plasma” value in data set [3] (equilibration time (d): 1), in data set [3] (equilibration time (d): 3) and in data set [3] (equilibration time (d): 6) were 60.2 ± 9.2%, 69.4 ± 2.3% and 61.4 ± 2.8%, respectively.
On to `COCCN(C(=O)CCl)c1c(C)cccc1C` [Dimethachlor], for which the chemical recovery in data set [1] (setting [7]) came to 45.9 ± 7%; in data set [1] (setting [4]), 46.6 ± 1.6%; in data set [1] (setting [5]), 47.8 ± 7.7%; in data set [1] (setting [6]), 63.4 ± 4.6%. Moreover, the “chemical recovery into PDMS” value is 34.9 ± 0.41% in data set [2] (equilibration time (d): 1), 37.6 ± 4.3% in data set [2] (equilibration time (d): 3) and 38 ± 0.68% in data set [2] (equilibration time (d): 6). Also, the “chemical recovery by SPE of plasma” value in data set [3] (equilibration time (d): 1) is 2.27 ± 0.1%; in data set [3] (equilibration time (d): 3), 2.96 ± 0.38%; in data set [3] (equilibration time (d): 6) it was 1.66 ± 0.09%.
In the case of `COCC(C)N(C(=O)CCl)c1c(C)csc1C` (stereo not drawn) [Dimethenamid], the chemical recovery came to 59.7 ± 19% in data set [1] (setting [7]), 53.9 ± 1.1% in data set [1] (setting [4]), 46.6 ± 8.4% in data set [1] (setting [5]) and 55.4 ± 3.7% in data set [1] (setting [6]). The “chemical recovery into PDMS” value worked out at 41.5 ± 0.65% in data set [2] (equilibration time (d): 1), 46.1 ± 4.6% in data set [2] (equilibration time (d): 3) and 44.9 ± 2.2% in data set [2] (equilibration time (d): 6). The “chemical recovery by SPE of plasma” value is 1.45 ± 0.053% in data set [3] (equilibration time (d): 1), 2.08 ± 0.36% in data set [3] (equilibration time (d): 3) and 1.25 ± 0.1% in data set [3] (equilibration time (d): 6).
